Some results are limits rather than exact numbers.

The record followed here is patent publication US11576978B2, “Hemoglobin-based therapeutic agents” (priority 2019, dated 2023).

Data set [1] in a line: Preliminary repeat-dose toxicity in normal mice. It counts as in vivo. The conditions noted are these: weekly, four IV doses, BALB/c mice. The procedure: The toxicity of Hb-SMCC-DM1 with an (Prepared using one-step method in Example 5, MDR of 3.0) is evaluated in repeat-dose study in normal BALB/c mice. Briefly, mice (n=3, females/group) are administered with unconjugated-DM1 and Hb-SMCC-DM1 weekly for a total of four IV doses at PBS, 2.5 mg/kg of unconjugated-DM1, and 42, 84, 126, and 168 mg/kg of Hb-SMCC-DM1, respectively. Body weights are recorded at every 3 days.

Another data set relates to cancer cell lines. Kind of data set: MTT cytotoxicity assay on cancer cell lines. The data set is classed as cell-based. The settings on record: various cancer cells. The procedure:
Cancer cells are cultured in medium (Invitrogen) with 10% Fetal bovine serum (FBS), 100 U/mL penicillin and 100 μg/mL streptomycin at 37° C. For normoxic condition, cells are incubated with ambient O2 concentration and 5% CO2, for hypoxic condition, cells are incubated with 0.1-0.5% O2 (Quorum FC-7 automatic CO2/O2/N2 gas mixer) and 5% CO2.
Cell viability is measured using a 3-(4,5-dimethylthiazol-2-yl)-2,5-diphenyltetrazolium bromide (MTT) proliferation assay. Briefly, cancer cell lines (e.g. HCT116, 4T1, and SMMC7721) are seeded in a 96-well flat-bottomed microplate and cultured in 100 μL growth medium at 37° C. and 5% CO2 for 24 h. Cell culture medium in each well is then replaced by 100 μL cell growth medium, containing either no drug, DM1 alone or modified hemoglobin-based cytotoxic agents at series concentrations. Incubation of drugs for 24 h, cell culture medium containing drugs is replaced by 100 μL MTT labeling reagent (1 mg/mL in PBS solution) in each well and incubation for further 4 h at 37° C. The medium is removed gently, and 50 μL DMSO is then added to each well as solubilizing agent to dissolve the formazan crystals completely. The absorbance at the wavelength of 570 nm is measured by iMark Microplate Absorbance Spectrophotometer, and each data point represents the means±SD from triplicate wells.

The nature of data set [2]: Biodistribution of AF750-labeled agents in normal mice. The conditions noted are these: 72 h post-injection, 40 mg/kg intravenously. It counts as in vivo, normal BALB/c mice. The method, then: Biodistribution of Hb-SMCC-DM1 (Prepared using one-step method in Example 5, MDR of 3.0) in normal mice is performed by using normal mice model. Briefly, normal BALB/c mice are injected intravenously with 40 mg/kg of Hb-AF750 and Hb-SMCC-DM1-AF750, respectively, and imaged serially from 2 hour to 72 hour post-injection. The mice are sacrificed at 72 hour of drug administration to collect various kinds of organ for imaging.

As for `COc1cc2cc(c1Cl)N(C)C(=O)C[C@H](OC(=O)[C@H](C)N(C)C(=O)CCS)[C@]1(C)O[C@H]1[C@H](C)[C@@H]1C[C@@](O)(NC(=O)O1)[C@H](OC)/C=C/C=C(\C)C2` [unconjugated-DM1, mertansine (DM1)], the tolerated dose result in data set [1] was “up to 2.5 mg/kg”.

Turning to hemoglobin, in the data set with cancer cell lines, the IC50 (as a rule, the point on the concentration scale where inhibition reaches its midpoint) is more than 10 µM. In addition, the “location of fluorescence signal (biodistribution)” value in data set [2] is “mainly in liver and kidney”.
